Patent US6969590B2, “Use of a polypeptide for treatment of pruritus in animals” (Zengen, Inc., priority 2001, dated 2005)
“Also recorded” adds a separate entry of the source.

Columns and labels:
fever = conditions: relative to parent peptide or to the 11-13 sequence; cited from earlier work
IL-6 = IL-6 production by activated N9 microglia; format: cell-based, murine; conditions: microglia stimulated with LPS+IFN-γ for 24 hr, micromolar concentrations
Experimental: (§1) The N9 clone of murine microglial cells was obtained by immortalization of embryonic brain cultures with the 3RV retrovirus carrying an activated v-myconcogene. N9 cells were cultured in T-75-cm^2 culture flasks (Corning, Cambridge, Mass.) and maintained at 37° C. in a humidified incubator under 5% CO2 atmosphere in RPMI 1640 supplemented with 2 mM L-glutamine, 50 U/mL penicillin G, 50 μg/mL streptomycin sulfate (GIBCO-BBL, Paisley, UK), and 10% heat-inactivated fetal bovine serum (FBS, Hyclone Lab, Inc., Logan, Utah) until experiments were performed. Cells were used between the first and the tenth passage.
(§2) Sub-confluent microglial cells were washed twice with phosphate-buffered saline (PBS) and incubated with trypsin 0.025% and ethylenediaminetetraacetate (EDTA) 0.02% without calcium and magnesium for 3 min. at 37° C. to detach the cells from the culture flask. Cells were then resuspended in medium and incubated in 24-well tissue-culture plates at a concentration of 2×10^5 cells/mL for 16 h in a humidified incubator (37° C., 5% CO2). Growth medium was removed and cell monolayers were stimulated with 10 ng/mL lipopolysaccharide (LPS, from Escherichia coli 055:B5, Sigma Chemical Co., St. Louis, Mo.) plus 1 U/ml, murine IFN-γ (Sigma). To test effects of melanocortin peptides, concentrations (1, 10, 25, 50 and 100 μM) of α-MSH (1-13), α-MSH (11-13), and ACTH (1-24) (Sigma) were dissolved in medium and added to wells 10 min before treatment with LPS+IFN-γ. […] Viability of cells was assessed by trypan blue exclusion for each experimental condition; it was consistently >98%. […]
(§3) TNF-α bioactivity was measured in supernatants of cell cultures by standard cytotoxicity assay using L929 cells and recombinant human TNF-α (Sigma) as standard. […] IL-6 was measured using a commercial murine enzyme-linked immunosorbent assay (ELISA: RPN 2714, Amersham, Little Chalfont, UK).
(§4) Effects of melanocortin peptides on cytokine and NO production were evaluated by repeated measures analysis of variance followed by Dunnet's test for specific comparisons. […]

TNF-α = TNF-α production by activated N9 microglia; format: cell-based, murine; conditions: microglia stimulated with LPS+IFN-γ for 24 hr, micromolar concentrations
Experimental: as §1, §2, §3, §4

NO2^− = experiment: Nitrite (NO) production by activated N9 microglia; format: cell-based, murine; conditions: microglia stimulated with LPS+IFN-γ for 24 hr, micromolar concentrations
Experimental: as §1, §2
NO is rapidly oxidized to nitrite (NO2) in culture medium, and nitrite concentration is an indicator of NO production. […] Samples were incubated at room temperature for 10 min and absorbency was measured at 540 nm with the use of a microplate reader. Nitrite concentrations were calculated using a sodium nitrite standard curve.
as §4

human neutrophils = experiment: C. albicans killing by human neutrophils; format: cell-based; conditions: 2 hours at 37° C., vs. medium
Experimental: Venous blood (20 ml) from healthy volunteers was anticoagulated with heparin. Neutrophils were isolated using dextran sedimentation and Ficoll-Hypaque (Sigma Chemical Co., St. Louis, Mi., USA) centrifugation. Erythrocytes were lysed via hypotonic shock. Neutrophils represented at least 97% of the cell suspension. Cell viability, estimated by trypan blue exclusion, was >98%. Neutrophils were suspended to a final concentration in HBSS. C. albicans (1×10^6) were opsonized with human AB serum in a shaking water bath for 30 minutes at 37° C. Organisms were then incubated with neutrophils in medium or in medium with α-MSH (1-13) or α-MSH (11-13) in concentrations of 10^−15 M to 10^−4 M in a shaking water bath for 2 hours at 37° C. After incubation, the culture tubes were placed on ice to stop growth and extracellular organisms were washed twice with centrifugation at 1000×g at 4° C. A 2.5% sodium desoxycholoate solution was added to obtain a suspension of 10^6 cells/ml. Two 1/100 serial dilutions in HBSS were made to obtain a final suspension of 100 cells/ml. Aliquots of 1 ml were dispensed on blood agar plates and incubated for 48 hours at 37° C. Colony forming units (CFUs) were counted at the end of the incubation period. Experiments were run in triplicate and repeated using blood from 5 different donors.

cAMP = cAMP accumulation in N9 cells; format: cell-based, murine; conditions: resting cells and cells incubated with LPS+IFN-γ
Experimental: cAMP accumulation in N9 cells was measured as previously described. Briefly, cells in six-well plates were co-incubated at 37° C. with (1) medium; (2) forskolin (100 μM); (3) LPS (10 ng/mL)+IFN-γ (1 U/mL); (4) α-MSH (1-13) or α-MSH (11-13) (1, 10, 50 μM); (5) LPS+IFN-γ and either α-MSN (1-13) or α-MSH (11-13) (10 μM). Reactions were stopped after 3 min by aspirating supernatants, immediately adding 1 mL ethanol at −20° C. and freezing. cAMP content in the ethanol-soluble fraction was measured using an enzyme immunoassay kit (Amersham).

C. albicans [1] = experiment: C. albicans colony forming units (candidacidal activity); format: cell-based
Experimental: C. albicans (1×10^6/ml in HBSS) was incubated in the presence or absence or α-MSH (1-13) or α-MSH (11-13) at concentrations in the range of 10^−15 M to 10^−6 M for 2 hours at 37° C. Cells were then washed in cold distilled water and diluted with HBSS to a concentration of 100 organisms/ml. One-ml aliquots were dispensed on blood agar plates and incubated for 48 hours at 37° C. Organism viability was estimated from the number of colonies formed. In subsequent experiments using familiar procedures we compared activity of α-MSH (4-10), α-MSH (6-13), α-MSH (11-13), ACTH (1-39), (18-39) and fluconazole, the latter an established antifungal agent. Melanocortin peptides and fluconazole were tested in concentrations of 10^−6 M to 10^−4 M. There were at least six replicates for each concentration of peptide.

TNF-α and iNOS mRNA = experiment: Northern blot of TNF-α and iNOS mRNA in activated microglia; format: cell-based, murine
Experimental: Total cellular RNA was extracted from 10^6 adherent microglial cells plated in six-well tissue culture plates (Corning). Electrophoresis of RNA samples (10 μg/lane) was performed in 1% agarose/2.2 M formaldehyde gels and the gels subsequently blotted onto nylon filters by capillary action and baked for 2 h before prehybridization. The cDNA fragments encoding murine TNF-α and mouse macrophage iNOS were ^32P-labeled using the Ready-To-Go DNA Labeling Kit (Pharmacia, Uppsala, Sweden) before hybridization of nylon filters and autoradiography. Blots were subsequently rehybridized with human glyceraldehyde-3-phosphate dehydrogenase (G-3-PDH) cDNA probe as an internal control (Clontech Laboratories, Inc., Palo Alto, Calif.).

C. albicans [2] = experiment: Horse serum-induced germ tube formation of C. albicans; format: cell-based; conditions: 10^−6M, 60 minutes at 37° C.
Experimental: C. albicans from stationary phase cultures were washed twice with distilled water and suspended in HBSS to a final concentration of 2×10^6/ml. Hyphal growth was induced by addition of 10% inactivated horse serum (GIBCO/BRL, Great Britain) to yeast incubated for 45 minutes at 37° C. with continuous shaking. Horse serum was removed by washing cells twice with HBSS and incubation was continued for 60 minutes at 37° C. in the presence of α-MSH (1-13), α-MSH (6-13) or α-MSH (11-13) at a concentration of 10^−6M with continuous shaking. The percentage of filamentous cells was evaluated under a light microscope with the aid of hemocytometer. Experiments were run in triplicate and at least 200 cells were scored. Photomicrographs were taken with an MC100 camera attached to an Axioskop Zeiss microscope.

[3] = kind of activity not given; cited from earlier work
[4] = system: inflammation induced in the ear by picryl chloride; experiment: Picryl chloride-induced ear swelling; format: in vivo, BALB/C mice
Experimental: Female BALB/C mice (Simmons Laboratories), 7 weeks old, were housed at 23-25° C. in groups of no more than 5 per cage [28 cm (L)×18 cm (W)×13 cm (H)]. They were allowed to acclimatize to standard lighting and temperature conditions for at least 1 week, with food and water available ad lib, before the experiment began. Five to ten animals were randomly assigned to each treatment group each test day, and all experiments were repeated at least twice to confirm reproducibility. To reduce error due to slight differences in responses to the irritant of animals from different shipments, tests of each agent were performed as separate experiments in which experimental and control animals were drawn from the same shipment.
In the experiments each animal was anesthetized with 1 mg of pentobarbital sodium solution (50 mg/kg, Nembutal, Abbott Laboratories, Abbott park, Ill.). Baseline ear thickness was measured for both ears with a spring-loaded micrometer (Swiss Precision Instruments, Los Angeles, Calif.). Ear thickness was expressed in units of 10^−3 cm; the average thickness of unstimulated ears was approximately 25-30×10^−3 cm. After baseline measurements were taken, one of six solutions was injected IP. Control animals received 0.2 ml of sterile saline, and experimental animals received Ac-α-MSH (11-13)-NH2, i.e., Ac-Lys-Pro-Val-NH2), Ac[D-Lys^11] α-MSH (11-13)-NH2, Ac[D-Pro^12] α-MSH (11-13)-NH2, Ac[D-Val^13] α-MSH (11-13)-NH2 or Ac-[D-Lys^11, D-Val^13] α-MSH (11-13)-NH2 in the same volume of saline. […] The doses of the tripeptides were 10 μg ([…]), 20 μg ([…]), 40 μg (1.04×10^−7 M), and 80 μg (2.08×10^−7 M). Immediately after saline or α-MSH injection, a micropipette was used to coat both sides of each ear with 10 μl (40 μl per mouse) of a 0.5% picryl chloride (Polysciences, Warrington, Pa.) solution in acetone.
Ear thickness was remeasured 3 and 6 h after picryl chloride application. Swelling was determined by subtracting baseline thickness from the measurements for each ear at 3 and 6 h. The differences for both ears were then averaged for the final analysis.
Repeated-measure ANOVA techniques were used to determine if there was an overall difference among group data for each peptide tested in separate experiments. In those cases in which the ANOVA yielded significant results, Dunnett's test was then used to compare the effects of peptide doses with control (saline) data for each of the two time periods, 3 and 6 h.

[Nle^4, D-Phe^7]-α-MSH
antipyretic potency (fever): approximately ten times more potent than the parent peptide in reducing fever

Lys-Pro-Val (KPV; Designed polypeptide with anti-inflammatory, anti-bacterial, anti-fungal and antipyretic properties.) [α-MSH (11-13), C-terminal tripeptide KPV of α-MSH]
reduction of production of IL-6 (IL-6): 50% | reduction of production of TNF-α (TNF-α): 45% | reduction of production of NO2^− (NO2^−): 40% | killing of C. albicans by human neutrophils (human neutrophils): enhanced the killing | cAMP accumulation (cAMP): increased cAMP accumlation | relative potency in reducing C. albicans viability (C. albicans [1]; 10^−4M melanocortin peptides): the most effective | effect on C. albicans colony forming units (CFU) (C. albicans [1]; 2 hours at 37° C., vs. control): greatly reduced; also recorded: significantly decreased C. albicans colony forming units; also recorded: inhibitory effect | mRNA for TNF-α and iNOS (Northern blot) (TNF-α and iNOS mRNA): inhibition of mRNA transaction for TNF-α and iNOS | reduction in the number of filamentous cells (inhibition of germination) (C. albicans [2]): 54-58%

Ac-[D-Lys^11]α-MSH (11-13)-NH2
general potency relative to L-form tripeptide [3]: same general potency as the L-form of the tripeptide α-MSH (11-13) | % Inhibition of swelling ([4]; 10 μg IP, 3 h): 23% | % Inhibition of swelling ([4]; 10 μg IP, 6 h): 17% | % Inhibition of swelling ([4]; 20 μg IP, 3 h): 25% | % Inhibition of swelling ([4]; 20 μg IP, 6 h): 16% | % Inhibition of swelling ([4]; 40 μg IP, 3 h): 35% | % Inhibition of swelling ([4]; 40 μg IP, 6 h): 37% | % Inhibition of swelling ([4]; 80 μg IP, 3 h): 34% | % Inhibition of swelling ([4]; 80 μg IP, 6 h): 29% | overall effect on ear inflammation (ANOVA) ([4]; 10-80 μg IP, 3 and 6 h): significantly reduced inflammation
